Results published in patent US5723606A, “Condensed benzazepine derivative and pharmaceutical composition thereof” (priority 1993, dated 1998).
Where a name gives a salt, the structure may show the parent alone. Read-outs that look alike come from different tables or passages of the source.

What was measured:
[1] = target: T1, arginine vasopressin V1 receptor (Rattus norvegicus, UniProt P30560); assay: V1 receptor binding assay; conditions: for antagonism on V1 receptor (in words): compared with OPC-31260 and OPC-21268, cf. Table 1
T1 construct: A rat liver membrane sample was prepared; from tissue; host or cells: rat liver membranes
Protocol: Usefulness of the compounds of the present invention was confirmed by the following tests. (1) V1 receptor binding assay
A rat liver membrane sample was prepared in accordance with the method of Nakamura et al. (J. Biol. Chem., 258, 9283 (1983)), and [^3 H]-Arg-vasopressin (2 nM, specific activity =75.8 Ci/mmol), 70 μg of the membrane sample and each drug to be tested (10^-8 to 10^-4 M) were incubated at 30° C. for 30 minutes in 250 μl of 100 mM Tris-HCl buffer (pH 8.0) containing 5 mM magnesium chloride, 1mM ethylenediaminetetraacetic acid (EDTA) and 0.1% bovine serum albumin (BSA). Thereafter, the incubation solution was sucked off using a cell harvester and free ligand and excess buffer were removed by passing the reaction mixture through a glass filter (GF/B), thereby trapping receptor-bound labeled ligand on the glass filter. The glass filter was taken out, thoroughly dried and then mixed with a liquid scintillation cocktail, and the amount of the membrane-bound [^3 H]-vasopressin was measured using a liquid scintillation counter to calculate the inhibition ratio by the following formula. [formula] C1 : amount of [^3 H]-vasopressin bound to the membrane in the coexistence of known amount of each drug to be tested and [^3 H]-vasopressin
C0 : amount of [^3 H]-vasopressin bound to the membrane when the drug to be tested was not added
B1 : amount of [^3 H]-vasopressin bound to the membrane in the presence of excess vasopressin (10^-6 M)
[formula] [L]: concentration of radioactive ligand KD: dissociation constant calculated from Scatchard plot
Negative logarithm of the thus calculated value was used as pKi value.

[2] = target: arginine vasopressin V2 receptor (Oryctolagus cuniculus, UniProt G1TA00); assay: V2 receptor binding assay; parameters: species or system rabbit; conditions: for antagonism on V2 receptor (in words): compared with OPC-31260 and OPC-21268, cf. Table 1
V1 receptor = assay: V1 antagonism in conscious rats (oral administration); assay type: in vivo, rat; conditions: 1 mg/kg oral, from 30 minutes to 6 hours after administration, AVP 30 mU/kg i.v.
V2 receptor = assay: V2 antagonism (water diuresis) in conscious rats (oral administration); assay type: in vivo, rat
Protocol: (4) V2 antagonism (water diuresis) in conscious rats (oral administration)
Each compound to be tested was suspended in 0.5% methylcellulose aqueous solution and orally administered in a dose of 3 mg/kg to male Wister rats (body weight, 270 to 300 g) which had been subjected to fasting with no water for 16 to 20 hours. Using a metabolic cage, urine samples were collected just after the administration of each test sample and until 4 hours after the administration to measure the amount of urine.

[3] = rat liver membrane, [3H]-Arg-vasopressin 2 nM, read-out: Binding activity on arginine vasopressin V1 receptor (pki) (converted)

T1 sequence (P30560 whole entry): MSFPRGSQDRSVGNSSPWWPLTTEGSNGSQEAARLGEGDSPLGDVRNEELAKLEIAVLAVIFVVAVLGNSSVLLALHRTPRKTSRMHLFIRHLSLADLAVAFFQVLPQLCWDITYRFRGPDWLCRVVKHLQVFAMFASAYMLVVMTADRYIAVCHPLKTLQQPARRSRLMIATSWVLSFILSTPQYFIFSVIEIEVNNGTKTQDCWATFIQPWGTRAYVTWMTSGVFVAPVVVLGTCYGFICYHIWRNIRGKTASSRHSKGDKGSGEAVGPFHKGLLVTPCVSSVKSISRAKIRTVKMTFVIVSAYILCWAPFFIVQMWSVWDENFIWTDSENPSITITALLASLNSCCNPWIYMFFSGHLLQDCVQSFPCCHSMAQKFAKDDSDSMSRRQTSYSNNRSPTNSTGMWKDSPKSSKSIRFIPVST
arginine vasopressin V2 receptor, sequence (G1TA00 78-446): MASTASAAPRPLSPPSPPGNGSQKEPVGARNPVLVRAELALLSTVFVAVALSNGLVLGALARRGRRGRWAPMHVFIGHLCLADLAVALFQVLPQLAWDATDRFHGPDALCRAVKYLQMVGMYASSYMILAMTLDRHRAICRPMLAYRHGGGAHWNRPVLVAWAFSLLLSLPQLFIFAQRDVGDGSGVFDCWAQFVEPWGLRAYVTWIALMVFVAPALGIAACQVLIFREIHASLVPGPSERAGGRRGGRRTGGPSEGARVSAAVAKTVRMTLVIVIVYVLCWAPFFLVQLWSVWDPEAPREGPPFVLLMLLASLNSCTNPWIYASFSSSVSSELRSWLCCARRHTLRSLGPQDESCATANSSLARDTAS

SMILES | Ki [1, 3] [nM] | antagonism on V1 receptor (in words) [1] | antagonism on V2 receptor (in words) [2] | other results
N=C(N)Nc1nc2c(s1)CCN(C(=O)c1ccc(NC(=O)c3ccccc3-c3ccccc3)cc1)c1ccccc1-2 [Example 2, 4'-[(2-guanidino-5,6-dihydro-4H-thiazolo[5,4-d][1]benzazepin-6-yl)carbonyl]-2-phenylbenzanilide hydrobromate] | 1.51 |  |  | 
Cc1nc2c([nH]1)-c1ccccc1N(C(=O)c1ccc(NC(=O)c3ccccc3-c3ccccc3)cc1)CC2.Cl [Example 18(2), 4'-[(2-methyl-1,4,5,6-tetrahydroimidazo[4,5-d][1]benzazepin-6-yl)carbonyl]-2-phenylbenzanilide hydrochloride] |  | excellent antagonisms | excellent antagonisms | Ki [1]: 0.891 nM; Pressure increase by AVP (diastolic blood pressure, pre-dose increase = 100%) (V1 receptor): ≤ 50%; amount of urine relative to the solvent-administered group (V2 receptor; po, 3 mg/kg): 8-10 times; amount of urine relative to the solvent-administered group (V2 receptor; po, 3 mg/kg, 2 h): 47-95 times
Cc1nc2c([nH]1)-c1ccccc1N(C(=O)c1ccc(NC(=O)c3ccccc3OC(C)C)cc1)CC2 [Example 27, 2-isopropoxy-4'-[(2-methyl-1,4,5,6-tetrahydroimidazo[4,5-d][1]benzazepin-6-yl)carbonyl]benzanilide hydrochloride] | 6.17 |  |  | 
Cc1nc2c(o1)-c1ccccc1N(C(=O)c1ccc(NC(=O)c3ccccc3-c3ccccc3)cc1)CC2 [Example 18(1), 4'-[(2-Methyl-5,6-dihydro-4H-oxazolo[4,5-d][1]benzazepin-6-yl)carbonyl]-2-phenylbenzanilide] | 4.27 |  |  | 
Nc1nc2c(s1)CCN(C(=O)c1ccc(NC(=O)c3ccccc3-c3ccccc3)cc1)c1ccccc1-2 [Example 1, 4'-[(2-amino-5,6-dihydro-4H-thiazolo[5,4-d][1]benzazepin-6-yl)carbonyl]-2-phenylbenzanilide hydrobromate] | 4.68 |  |  | 
NCCCCc1nc2c([nH]1)-c1ccccc1N(C(=O)c1ccc(NC(=O)c3ccccc3-c3ccccc3)cc1)CC2 [Example 37, 4'-[[2-(4-aminobutyl)-1,4,5,6-tetrahydroimidazo[4,5-d][1]benzazepin-6-yl]carbonyl]-2-phenylbenzanilide.2 HCl] | 0.324 | excellent antagonisms | excellent antagonisms | 
Cc1nc2c([nH]1)-c1ccccc1N(C(=O)c1ccc(NC(=O)C3(c4ccccc4)CCCC3)cc1)CC2 [Example 38, N-[4-[(2-methyl-1,4,5,6-tetrahydroimidazo[4,5-d][1]benzazepin-6-yl)carbonyl]phenylcyclopentanecarboxamido hydrochloride] | 5.75 |  |  | 
NCCc1nc2c(s1)CCN(C(=O)c1ccc(NC(=O)c3ccccc3-c3ccccc3)cc1)c1ccccc1-2 [Example 15, 4'-[(2-aminoethyl-5,6-dihydro-4H-thiazolo[5,4-d][1]benzazepin-6-yl)carbonyl]-2-phenylbenzanilide hydrochloride] |  |  |  | Ki [1]: 1.23 nM
Cc1ccccc1C(=O)Nc1ccc(C(=O)N2CCCC(N(C)C)c3ccccc32)cc1 (centres unmarked) [(1), reference compound] |  |  |  | Binding activity on arginine vasopressin V1 receptor (pki) ([1]; rat liver membrane, [3H]-Arg-vasopressin 2 nM): 6.71; Binding activity on arginine vasopressin V2 receptor (pki) ([2]; rabbit renal medulla membrane, [3H]-Arg-vasopressin 2 nM): 8.01; amount of urine relative to the solvent-administered group (V2 receptor; 3 mg/kg oral, from 2 hours to 4 hours after administration, fasted conscious rats): almost the same as that in the solvent-administered group; amount of urine relative to the solvent-administered group (V2 receptor; po, 3 mg/kg, 2 h): 11 times
Cl.O=C(Nc1ccc(C(=O)N2CCc3nc(C4CC4)[nH]c3-c3ccccc32)cc1)c1ccccc1-c1ccccc1 [Example 23, 4'-[(2-cyclopropyl-1,4,5,6-tetrahydroimidazo[4,5-d][1]benzazepin-6-yl)carbonyl]-2-phenylbenzanilide hydrochloride] |  | excellent antagonisms | excellent antagonisms | Pressure increase by AVP (diastolic blood pressure, pre-dose increase = 100%) (V1 receptor): ≤ 50%; amount of urine relative to the solvent-administered group (V2 receptor; po, 3 mg/kg): 8-10 times; amount of urine relative to the solvent-administered group (V2 receptor; po, 3 mg/kg, 2 h): 47-95 times
CCCc1nc2c([nH]1)-c1ccccc1N(C(=O)c1ccc(NC(=O)c3ccccc3-c3ccccc3)cc1)CC2.Cl [Example 21, 4'-[(2-propyl-1,4,5,6-tetrahydroimidazo[4,5-d][1]benzazepin-6-yl)carbonyl]-2-phenylbenzanilide hydrochloride] | 1.82 | excellent antagonisms | excellent antagonisms | Pressure increase by AVP (diastolic blood pressure, pre-dose increase = 100%) (V1 receptor): ≤ 50%; amount of urine relative to the solvent-administered group (V2 receptor; po, 3 mg/kg): 8-10 times; amount of urine relative to the solvent-administered group (V2 receptor; po, 3 mg/kg, 2 h): 47-95 times
Cc1nc(Cc2nc3c(s2)CCN(C(=O)c2ccc(NC(=O)c4ccccc4-c4ccccc4)cc2)c2ccccc2-3)c[nH]1 [Example 6, 4'-[[2-[4-(2-methylimidazolyl)methyl]-5,6-dihydro-4H-thiazolo[5,4-d][1]benzazepin-6-yl)carbonyl]-2-phenylbenzanilide.2HCl] | 11.2 |  |  | 
CN(C)CCNc1nc2c(s1)CCN(C(=O)c1ccc(NC(=O)c3ccccc3-c3ccccc3)cc1)c1ccccc1-2 [Example 10, 4'-[(2-dimethylaminoethylamino-5,6-dihydro-4H-thiazolo[5,4-d][1]benzazepin-6-yl)carbonyl]-2-phenylbenzanilide.2 HCl] | 2.45 |  |  | 
Cc1nc2c([nH]1)-c1ccccc1N(C(=O)c1ccc(NC(=O)c3ccccc3C)cc1)CC2 [Example 24, 2-methyl-4'-[(2-methyl-1,4,5,6-tetrahydroimidazo[4,5-d][1]benzazepin-6-yl)carbonyl]benzanilide hydrochloride] | 17 |  |  | 
CCc1nc2c([nH]1)-c1ccccc1N(C(=O)c1ccc(NC(=O)c3ccccc3-c3ccccc3)cc1)CC2.Cl [Example 20, 4'-[(2-ethyl-1,4,5,6-tetrahydroimidazo[4,5-d][1]benzazepin-6-yl)carbonyl]-2-phenylbenzanilide hydrochloride] | 0.661 | excellent antagonisms | excellent antagonisms | amount of urine relative to the solvent-administered group (V2 receptor; po, 3 mg/kg): 8-10 times; amount of urine relative to the solvent-administered group (V2 receptor; po, 3 mg/kg, 2 h): 47-95 times
Cc1ccc(-c2ccccc2C(=O)Nc2ccc(C(=O)N3CCc4sc(NC(=N)N)nc4-c4ccccc43)cc2)cc1 [Example 4, 4'-[(2-guanidino-5,6-dihydro-4H-thiazolo[5,4-d][1]benzazepin-6-yl)carbonyl]-2-(4-methylphenyl)benzanilide hydrobromate] | 4.37 |  |  | 
O=C(Nc1ccc(C(=O)N2CCc3sc(Cc4cccnc4)nc3-c3ccccc32)cc1)c1ccccc1-c1ccccc1 [Example 8, 4'-[[2-(3-pyridylmethyl)-5,6-dihydro-4H-thiazolo[5,4-d][1]benzazepin-6-yl)carbonyl]-2-phenylbenzanilide hydrochloride] | 18.2 |  |  | 
CC(C)O.Cl.NCC(=O)Nc1nc2c(s1)CCN(C(=O)c1ccc(NC(=O)c3ccccc3-c3ccccc3)cc1)c1ccccc1-2 [Example 17, 4'-[(2-glycylamino-5,6-dihydro-4H-thiazolo[5,4-d][1]benzazepin-6-yl)carbonyl]-2-phenylbenzanilide 2-propylalcohol hydrochloride] | 0.912 | excellent antagonisms | excellent antagonisms | 
CN(C)CCCc1nc2c(s1)CCN(C(=O)c1ccc(NC(=O)c3ccccc3-c3ccccc3)cc1)c1ccccc1-2 [Example 12, 4'-[[2-(3-dimethylaminopropyl)-5,6-dihydro-4H-thiazolo[5,4-d][1]benzazepin-6-yl)carbonyl]-2-phenylbenzanilide hydrochloride] | 3.02 |  |  | 
